Reference: US20100119595A1, “Monounsaturated fatty acids and perhydrocyclopentanophenanthrene nucleus combination molecules, and their precursors, and the use of all of these as weight-loss agents” (priority 2001, published 2010)

Tests used:
[1] = Rat study of 2 hydroxyestrone oleate (Example 12); type: in vivo, Osborne Mendle rats; details: rats, oral gavage 21 days, 10, 5, 3.33 or 2.5 micromoles/kg
Protocol: Osborne Mendle rats are selected as the study subjects due to their propensity to gain fat when fed a high fat diet. An initial measurement of body weight is performed on each rat. The rats are placed individually in appropriate cages and allowed an ad libitum diet of standard rat chow and water for a 10-day period. During this 10-day period the rats are gavaged daily with 0.1 cc volume of sunflower oil to allow them to become comfortable with being handled and receiving the gavage tube (it takes about 10 days for this acclimation to occur, and is important so that the animals are not stressed by the gavage). Daily measurements include the following: • 1. Weight • 2. Weight of food consumed • 3. Spillage • 4. Water consumed, both volume and weight The rats remain confined and are denied out-of-cage activity or exercise for the duration of the experiment other than normal daily activity confined to the cage. This initial 10 day period establishes a pattern and average of weight gain, to acclimate the animals to the gavage procedure, and determine the average food and water consumption for each rat. […]
At the end of the study, rats are anesthetized then sacrificed via guillotine. […] Weight of the uterus is determined. […]

[2] = Rabbit study at mole/kg dose equivalent to that used for oleoyl-estrone in rats; type: in vivo, rabbits
Excerpt: The eicosenoic acid-estrogen monoesters mimic the function of the naturally occurring fatty acid monoester, estrone monooleate, as a signal that informs the brain of the size of fat tissue mass. When administered to rabbits, they produce weight reduction of about 20%, by a) decreasing food intake and b) by a new and unexpected mechanism. Eicosenoic acid-estrogen monoesters are useful for the treatment of obesity and/or overweight in mammals, with the advantages of high efficacy and low toxicity.

SMILES	body weight &/or body fat [1]	food consumption [1]	greater reduction in appetite in rabbits than oleoyl-estrone did in rats [2] [%]	greater weight loss in rabbits than oleoyl-estrone did in rats [2] [%]
CCCCCCCC/C=C\CCCCCCCC(=O)Oc1cc2c(cc1O)[C@H]1CC[C@]3(C)C(=O)CC[C@H]3[C@@H]1CC2 [2HOE, 2 hydroxyestrone oleate]	reduction of body weight &/or body fat	reduction in food consumption		
CCCCCCCC/C=C\CCCCCCCCCC(=O)Oc1ccc2c(c1)CC[C@@H]1[C@@H]2CC[C@]2(C)C(=O)CC[C@@H]12 [EE, estrone eicosenoate]			50	60
